Experimental data published in PubChem BioAssay AID330 (DTP/NCI, 2004).
Where “and” joins values, the source holds several entries; their conditions need not be identical. Identical values can stand only once. Toxic doses and inconclusive results are not listed. Rule for the calls: active = survival T/C of 150% or more; inactive = T/C below 125% in these data.

Test system: P388 leukemia ip, CD2F1 mice, survival T/C
Assay: NCI In Vivo Anticancer Drug Screen. Data for tumor model P388 Leukemia (intraperitoneal) in CD2F1 (CDF1) mice
Settings: endpoint: median survival time, higher = longer survival
In short: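 Mice carrying the transplanted tumor received test compound or vehicle. Survival was recorded in each group, and the value is the treated-group measurement divided by that of the vehicle-treated control group.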

[1] = dose: 25.0 mg/kg/injection, schedule: Q01DX005 (ip), vehicle: Klucel (hydroxypropylcellulose) (HPC)
[2] = dose: 50.0 mg/kg/injection, schedule: Q01DX005 (ip), vehicle: Klucel (hydroxypropylcellulose) (HPC)
[3] = dose: 12.5 mg/kg/injection, schedule: Q01DX009 (ip), vehicle: saline with Tween-80
[4] = dose: 25.0 mg/kg/injection, schedule: Q01DX009 (ip), vehicle: saline with Tween-80
[5] = dose: 50.0 mg/kg/injection, schedule: Q01DX009 (ip), vehicle: saline with Tween-80
[6] = dose: 400.0 mg/kg/injection, schedule: Q04DX003 (ip), vehicle: saline
[7] = dose: 60.0 mg/kg/injection, schedule: Q01DX005 (ip), vehicle: saline with Tween-80
[8] = dose: 120.0 mg/kg/injection, schedule: Q01DX005 (ip), vehicle: saline with Tween-80
[9] = dose: 240.0 mg/kg/injection, schedule: Q01DX005 (ip), vehicle: saline with Tween-80
[10] = dose: 50.0 mg/kg/injection, schedule: Q01DX009 (ip), vehicle: Klucel (hydroxypropylcellulose) (HPC)
[11] = dose: 100.0 mg/kg/injection, schedule: Q01DX009 (ip), vehicle: Klucel (hydroxypropylcellulose) (HPC)
[12] = dose: 200.0 mg/kg/injection, schedule: Q01DX009 (ip), vehicle: Klucel (hydroxypropylcellulose) (HPC)
[13] = dose: 100.0 mg/kg/injection, schedule: Q01DX005 (ip), vehicle: Klucel (hydroxypropylcellulose) (HPC)
[14] = dose: 200.0 mg/kg/injection, schedule: Q01DX005 (ip), vehicle: Klucel (hydroxypropylcellulose) (HPC)
[15] = dose: 50.0 mg/kg/injection, schedule: Q01DX005 (ip), vehicle: saline with Tween-80
[16] = dose: 100.0 mg/kg/injection, schedule: Q01DX005 (ip), vehicle: saline with Tween-80
[17] = dose: 200.0 mg/kg/injection, schedule: Q01DX005 (ip), vehicle: saline with Tween-80

Measured: T/C

CC(=O)OC1(C)C(=O)OC/C2=C/CN(C)CCC(OC(=O)C(O)(C(C)Cl)CC1C)C2=O (stereo not drawn)
inactive: dose: 12.5 mg/kg/injection, schedule: Q01DX005 (ip), vehicle: Klucel (hydroxypropylcellulose) (HPC) 103 % of control | [1] 100 % of control | [2] 99 % of control and 103 % of control

COc1cc2c(cc1OC)C1CC(OC(=O)c3ccccc3)(c3nccc4cc(OC)c(OC)cc34)CCN1CC2 (stereo not drawn)
inactive: [3] 97 % of control | [4] 93 % of control | [5] 95 % of control and 97 % of control

COc1cc2c(cc1OC(C)=O)C(=O)CCC=C2
inactive: dose: 33.0 mg/kg/injection, schedule: Q04DX003 (ip), vehicle: saline 100 % of control | dose: 50.0 mg/kg/injection, schedule: Q04DX003 (ip), vehicle: saline 104 % of control | dose: 75.0 mg/kg/injection, schedule: Q04DX003 (ip), vehicle: saline 112 % of control | [6] 120 % of control

N#C/C(=C\c1ccncc1)c1ccccc1
inactive: dose: 3.13 mg/kg/injection, schedule: Q01DX009 (ip), vehicle: saline with Tween-80 90 % of control | dose: 6.25 mg/kg/injection, schedule: Q01DX009 (ip), vehicle: saline with Tween-80 95 % of control | [3] 92 % of control | [4] 109 % of control

O=C(C=C(C(F)(F)F)C(F)(F)F)c1cccc(S(=O)(=O)F)c1
inactive: dose: 3.13 mg/kg/injection, schedule: Q04DX003 (ip), vehicle: saline 100 % of control | dose: 6.25 mg/kg/injection, schedule: Q04DX003 (ip), vehicle: saline 100 % of control | dose: 12.5 mg/kg/injection, schedule: Q04DX003 (ip), vehicle: saline 95 % of control

COC(=O)[C@@H]1CON(Cc2ccccc2)C1CC1(C)OCCO1 (stereo partly drawn)
inactive: [7] 103 % of control | [8] 104 % of control | [9] 109 % of control

c1ccc2cc3c4c(ccc3cc2c1)CCCCCC4
inactive: [3] 86 % of control | [4] 112 % of control | [5] 105 % of control

Cc1nccc2c1[nH]c1cc(N)ccc12.[Cl][Sn][Cl]
inactive: dose: 5.0 mg/kg/injection, schedule: Q01DX009 (ip), vehicle: saline sonified 100 % of control | dose: 10.0 mg/kg/injection, schedule: Q01DX009 (ip), vehicle: saline sonified 95 % of control | dose: 20.0 mg/kg/injection, schedule: Q01DX009 (ip), vehicle: saline sonified 100 % of control

COCC1OC2OC3C(COC)OC(OC4C(COC)OC(OC5C(COC)OC(OC6C(COC)OC(OC7C(COC)OC(OC8C(COC)OC(OC1C(O)C2O)C(O)C8O)C(O)C7O)C(O)C6O)C(O)C5O)C(O)C4O)C(O)C3O (stereo not drawn) (tested in a mixture with another compound)
inactive: dose: 25.0 mg/kg/injection, schedule: Q01DX009 (ip), vehicle: Klucel (hydroxypropylcellulose) (HPC) 100 % of control and 102 % of control | [10] 99 % of control and 100 % of control | [11] 98 % of control | [12] 95 % of control and 97 % of control | dose: 400.0 mg/kg/injection, schedule: Q01DX009 (ip), vehicle: Klucel (hydroxypropylcellulose) (HPC) 93 % of control and 95 % of control

[O-][n+]1c2c(cc3ccccc31)Cc1ccccc1-2
inactive: [2] 109 % of control | [13] 101 % of control | [14] 106 % of control

O=C(OCc1ccccc1)N1C[C@@H](O)[C@H](Br)[C@H]1Cc1ccccc1
inactive: dose: 100.0 mg/kg/injection, schedule: Q01DX001 (ip), vehicle: distilled water + alcohol 103 % of control | dose: 200.0 mg/kg/injection, schedule: Q01DX001 (ip), vehicle: distilled water + alcohol 100 % of control | dose: 400.0 mg/kg/injection, schedule: Q01DX001 (ip), vehicle: distilled water + alcohol 97 % of control

COc1ccccc1-n1cccc(C#N)c1=S
inactive: dose: 60.0 mg/kg/injection, schedule: Q01DX005 (ip), vehicle: Klucel (hydroxypropylcellulose) (HPC) 98 % of control | dose: 120.0 mg/kg/injection, schedule: Q01DX005 (ip), vehicle: Klucel (hydroxypropylcellulose) (HPC) 91 % of control | dose: 240.0 mg/kg/injection, schedule: Q01DX005 (ip), vehicle: Klucel (hydroxypropylcellulose) (HPC) 89 % of control

COc1c(Br)c2c(c([N+](=O)[O-])c1OC)C(=O)OC2C1c2c(cc3c(c2OC)OCO3)CCN1C (stereo not drawn)
inactive: [1] 91 % of control | [2] 104 % of control | [13] 104 % of control | [14] 103 % of control

Cn1c([N+](=O)[O-])cnc1/C=C1/Cc2cc(OCCN3CCCCCC3)ccc2C1=O
inactive: [4] 110 % of control | [5] 101 % of control | dose: 100.0 mg/kg/injection, schedule: Q01DX009 (ip), vehicle: saline with Tween-80 109 % of control

Cc1cc(NS(=O)(=O)c2ccc(Nc3ccnc4cc(Cl)ccc34)cc2)no1
inactive: [15] 92 % of control | [16] 86 % of control | [17] 92 % of control

CC(C)=CCCC(C)(OC1OC(COC2OC(CO)C(O)C(O)C2O)C(O)C(O)C1O)C1CCC2(C)C1C(O)CC1C3(C)CCC(OC4OC(CO)C(O)C(O)C4OC4OC(CO)C(O)C(O)C4O)C(C)(C)C3CCC12C (stereo not drawn)
inactive: dose: 2.0 mg/kg/injection, schedule: Q01DX009 (ip), vehicle: Klucel (hydroxypropylcellulose) (HPC) 102 % of control | dose: 4.0 mg/kg/injection, schedule: Q01DX009 (ip), vehicle: Klucel (hydroxypropylcellulose) (HPC) 95 % of control | dose: 8.0 mg/kg/injection, schedule: Q01DX009 (ip), vehicle: Klucel (hydroxypropylcellulose) (HPC) 98 % of control | dose: 16.0 mg/kg/injection, schedule: Q01DX009 (ip), vehicle: Klucel (hydroxypropylcellulose) (HPC) 93 % of control | dose: 32.0 mg/kg/injection, schedule: Q01DX009 (ip), vehicle: Klucel (hydroxypropylcellulose) (HPC) 88 % of control

CC1CC2(CC(CN(C3CCCCC3)C3CCCCC3)OC2=O)C(=O)O1 (stereo not drawn)
inactive: [15] 104 % of control | [16] 102 % of control | [17] 96 % of control

CN(C)[Si](c1ccccc1)(c1ccccc1)N(C)C
inactive: [10] 102 % of control | [11] 102 % of control | [12] 106 % of control

COc1ccncc1CCc1cnccc1OC
inactive: dose: 100.0 mg/kg/injection, schedule: Q04DX003 (ip), vehicle: saline 99 % of control | dose: 200.0 mg/kg/injection, schedule: Q04DX003 (ip), vehicle: saline 93 % of control | [6] 90 % of control

O=[N+]([O-])c1ccc(/C=C/S(=O)(=O)Cc2ccccc2)cc1
inactive: [15] 105 % of control | [16] 100 % of control | [17] 96 % of control

COC(=O)C(=O)C(C#N)c1ccc([N+](=O)[O-])cc1 (stereo not drawn)
inactive: [7] 101 % of control | [8] 93 % of control | [9] 95 % of control

CCC1=CCCN(Cc2ccccc2)C1C#N (stereo not drawn)
inactive: dose: 7.5 mg/kg/injection, schedule: Q01DX005 (ip), vehicle: Klucel (hydroxypropylcellulose) (HPC) 106 % of control | dose: 15.0 mg/kg/injection, schedule: Q01DX005 (ip), vehicle: Klucel (hydroxypropylcellulose) (HPC) 111 % of control | dose: 30.0 mg/kg/injection, schedule: Q01DX005 (ip), vehicle: Klucel (hydroxypropylcellulose) (HPC) 118 % of control
